Target: human F508del-CFTR (Homo sapiens, UniProt P13569, DEL508-508)
Experiment: F508del-CFTR cell surface expression (corrector activity), DiscoveRx ß-galactosidase complementation chemiluminescence assay in recombinant U2OS cell line;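 note: U2OS cells co-expressing ProLink-tagged F508del-CFTR and a membrane-anchored enzyme acceptor, where more surface CFTR restores β-galactosidase activity measured by chemiluminescence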
Details: for EC50: EC50, F508del-CFTR cell surface expression; for Emax: U2OS
[1] = U2OS cells, 16h compound incubation, geomean of several measurements
[2] = in relation to the Emax of the corrector lumacaftor (=100%), U2OS cells, 16h compound incubation, arithmetic mean
[3] = in relation to the Emax of the corrector lumacaftor (=100%), U2OS cell line, 16h compound incubation, arithmetic mean values
[4] = U2OS cells, 16h compound incubation, geomean values
[5] = in relation to Emax of corrector lumacaftor (=100%), arithmetic mean values
[6] = U2OS cell line, 16h compound incubation, geomean values

human F508del-CFTR, sequence (P13569 with tags, fused parts or gaps DEL508-508): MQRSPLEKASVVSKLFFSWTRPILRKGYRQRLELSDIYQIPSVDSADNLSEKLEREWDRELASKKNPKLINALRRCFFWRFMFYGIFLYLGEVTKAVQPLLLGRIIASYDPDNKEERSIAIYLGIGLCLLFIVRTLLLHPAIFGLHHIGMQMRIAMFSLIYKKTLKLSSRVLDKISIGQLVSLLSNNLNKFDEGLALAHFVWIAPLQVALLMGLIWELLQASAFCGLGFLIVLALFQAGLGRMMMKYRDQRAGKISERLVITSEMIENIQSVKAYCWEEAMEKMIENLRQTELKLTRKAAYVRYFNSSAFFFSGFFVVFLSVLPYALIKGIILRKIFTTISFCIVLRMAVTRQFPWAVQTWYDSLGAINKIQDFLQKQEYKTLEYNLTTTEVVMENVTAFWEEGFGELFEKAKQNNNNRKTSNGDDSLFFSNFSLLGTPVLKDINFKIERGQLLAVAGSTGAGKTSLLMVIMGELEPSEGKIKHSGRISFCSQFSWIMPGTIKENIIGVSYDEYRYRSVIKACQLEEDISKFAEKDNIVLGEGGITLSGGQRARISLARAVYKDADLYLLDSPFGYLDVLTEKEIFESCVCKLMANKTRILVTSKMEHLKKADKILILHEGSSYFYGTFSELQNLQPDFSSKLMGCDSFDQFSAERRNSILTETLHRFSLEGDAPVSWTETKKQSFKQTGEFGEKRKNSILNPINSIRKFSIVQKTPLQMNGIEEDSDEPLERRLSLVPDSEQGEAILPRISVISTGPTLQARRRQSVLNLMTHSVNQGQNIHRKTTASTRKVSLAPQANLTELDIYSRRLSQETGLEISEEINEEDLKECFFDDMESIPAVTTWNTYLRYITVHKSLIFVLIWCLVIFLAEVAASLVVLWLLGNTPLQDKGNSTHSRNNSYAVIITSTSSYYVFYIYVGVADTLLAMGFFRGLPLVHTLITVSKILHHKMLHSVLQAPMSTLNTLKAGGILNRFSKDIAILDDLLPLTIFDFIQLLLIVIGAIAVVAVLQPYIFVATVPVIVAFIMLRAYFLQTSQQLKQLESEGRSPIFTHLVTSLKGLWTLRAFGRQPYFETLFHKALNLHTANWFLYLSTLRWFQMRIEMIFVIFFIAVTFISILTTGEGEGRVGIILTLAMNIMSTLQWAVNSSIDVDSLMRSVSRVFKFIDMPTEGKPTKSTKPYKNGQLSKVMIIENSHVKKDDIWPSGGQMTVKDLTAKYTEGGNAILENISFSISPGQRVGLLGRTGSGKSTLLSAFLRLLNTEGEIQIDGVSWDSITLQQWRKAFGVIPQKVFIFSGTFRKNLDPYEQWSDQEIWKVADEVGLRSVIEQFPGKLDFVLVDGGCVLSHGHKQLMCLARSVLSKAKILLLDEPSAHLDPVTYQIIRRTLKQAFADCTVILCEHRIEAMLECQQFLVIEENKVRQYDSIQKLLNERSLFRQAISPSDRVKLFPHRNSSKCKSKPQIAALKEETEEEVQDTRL

Row | EC50 [1] [nM] | Emax [2] [%] | SMILES | Emax [3] [%] | EC50 [6] [nM] | also measured
1 | 233 | 394 | COc1nc(C)cc2c1C(=O)N[C@H](C(=O)NCCn1nnc(C3CC3)n1)CC(=O)N(C)[C@@H](CC(C)C)C(=O)N(C)[C@H](CC(F)(F)F)C(=O)N[C@H](Cc1ccccc1)CO2 [Example 806, (3R,6R,9S,13S)-3-benzyl-N-(2-(5-cyclopropyl-2H-tetrazol-2-yl)ethyl)-9-isobutyl-16-methoxy-7,10,18-trimethyl-5,8,11,15-tetraoxo-6-(2,2,2-trifluoroethyl)-2,3,4,5,6,7,8,9,10,11,12,13,14,15-tetradecahydropyrido[3,4-p][1]oxa[4,7,10,14]tetraazacycloheptadecine-13-carboxamide] | – | – | –
2 | – | – | CN1C(=O)C[C@@H](C(=O)NCCc2ccc3c(c2)OCO3)NC(=O)c2c(ccc3ccccc23)OC[C@@H](Cc2ccccc2)NC(=O)CN(C[C@@H]2CCCCO2)C(=O)[C@@H]1CC1CCCCC1 (racemic) [Example 285, (3RS,7S,13R)-N-(2-(benzo[d][1,3]dioxol-5-yl)ethyl)-13-benzyl-7-(cyclohexylmethyl)-6-methyl-1,5,8,11-tetraoxo-9-(((S)-tetrahydro-2H-pyran-2-yl)methyl)-1,2,3,4,5,6,7,8,9,10,11,12,13,14-tetradecahydronaphtho[1,2-p][1]oxa[4,7,10,14]tetraazacycloheptadecine-3-carboxamide] | 118 | – | –
3 | 163 | 249 | Cc1cc(CCNC(=O)[C@@H]2CC(=O)N(C)[C@@H](CC(C)C)C(=O)N3CCN(c4ccc(F)cn4)C[C@@H]3C(=O)N[C@H](Cc3ccccc3)COc3cnc4ccccc4c3C(=O)N2)on1 [Example 852, (9S,13S,19aR,22R)-22-benzyl-18-(5-fluoropyridin-2-yl)-13-isobutyl-12-methyl-N-(2-(3-methylisoxazol-5-yl)ethyl)-7,11,14,20-tetraoxo-7,8,9,10,11,12,13,14,17,18,19,19a,20,21,22,23-hexadecahydro-16H-pyrazino[2′,11:6,7][1]oxa[4,7,10,14]tetraazacycloheptadecino[17,16-c]quinoline-9-carboxamide] | – | – | –
4 | – | – | COc1cccc(CCNC(=O)[C@@H]2CC(=O)N(C)[C@@H](CC(C)C)C(=O)N3CCOC[C@@H]3C(=O)N[C@H](Cc3ccccc3)COc3ccc4c(cnn4C)c3C(=O)N2)c1 [Example 424, (8S,12S,18aR,21R)-21-benzyl-12-isobutyl-N-(3-methoxyphenethyl)-3,11-dimethyl-6,10,13,19-tetraoxo-6,7,8,9,10,11,12,13,15,16,18,18a,19,20,21,22-hexadecahydro-3H-[1,4]oxazino[3′,4′:6,7][1]oxa[4,7,10,14]tetraazacycloheptadecino[16,17-e]indazole-8-carboxamide] | – | – | EC50 [4]: 831 nM; Emax [5]: 235%
5 | 339 | 431 | CCOCC[C@@H]1C(=O)N[C@H](Cc2ccccc2)COc2ccc3ncc(F)cc3c2C(=O)N[C@H](C(=O)NCCc2cc(C)no2)CC(=O)N(C)[C@@H](CC(C)C)C(=O)N1C [Example 894, (3S,7S,10R,13R)-13-benzyl-10-(2-ethoxyethyl)-20-fluoro-7-isobutyl-6,9-dimethyl-N-(2-(3-methylisoxazol-5-yl)ethyl)-1,5,8,11-tetraoxo-1,2,3,4,5,6,7,8,9,10,11,12,13,14-tetradecahydro-[1]oxa[4,7,10,14]tetraazacycloheptadecino[16,17-f]quinoline-3-carboxamide] | – | – | –
6 | – | – | COCCCNC(=O)[C@@H]1CC(=O)N(C)[C@@H](CC(C)C)C(=O)N(CCC2CCCCC2)CC(=O)N[C@H](Cc2ccccc2)COc2cccc(OC)c2C(=O)N1 [Example 210, (3R,9S,13S)-3-benzyl-7-(2-cyclohexylethyl)-9-isobutyl-16-methoxy-N-(3-methoxypropyl)-10-methyl-5,8,11,15-tetraoxo-2,3,4,5,6,7,8,9,10,11,12,13,14,15-tetradecahydrobenzo[p][1]oxa[4,7,10,14]tetraazacycloheptadecine-13-carboxamide] | 108 | 352 | –
7 | – | – | CC(C)C[C@H]1C(=O)N2CC[C@H](c3ccccc3)C[C@H]2C(=O)N[C@H](Cc2ccccc2)COc2cnc3ccccc3c2C(=O)N[C@H](C(=O)NCCc2cc(C3CC3)no2)CC(=O)N1C (single isomer, unassigned) [Example 674] | – | – | EC50 [4]: 262 nM; Emax [5]: 133%
8 | – | – | COc1nccc2c1C(=O)N[C@H](C(=O)NCCc1cc(C)no1)CC(=O)N(C)[C@@H](CC(C)C)C(=O)N1CCN(c3ccccc3)C[C@@H]1C(=O)N[C@H](Cc1ccccc1)CO2 [Example 542, (7S,11S,20R,22aR)-20-benzyl-7-isobutyl-14-methoxy-8-methyl-N-(2-(3-methylisoxazol-5-yl)ethyl)-6,9,13,22-tetraoxo-2-phenyl-1,3,4,6,7,8,9,10,11,12,13,19,20,21,22,22a-hexadecahydro-2H-pyrazino[2,1-f]pyrido[3,4-p][1]oxa[4,7,10,14]tetraazacycloheptadecine-11-carboxamide] | – | – | EC50 [4]: 368 nM; Emax [5]: 334%
9 | 59 | 359 | COc1cc(CCNC(=O)[C@@H]2CC(=O)N(C)[C@@H](CC(C)C)C(=O)N(C)[C@H](Cc3cc(OC)no3)C(=O)N[C@H](Cc3ccccc3)COc3ccc4ncc(F)cc4c3C(=O)N2)on1 [Example 880, (3S,7S,10R,13R)-13-benzyl-20-fluoro-7-isobutyl-N-(2-(3-methoxyisoxazol-5-yl)ethyl)-10-((3-methoxyisoxazol-5-yl)methyl)-6,9-dimethyl-1,5,8,11-tetraoxo-1,2,3,4,5,6,7,8,9,10,11,12,13,14-tetradecahydro-[1]oxa[4,7,10,14]tetraazacycloheptadecino[16,17-f]quinoline-3-carboxamide] | – | – | –
10 | – | – | COc1cccc(CCNC(=O)[C@@H]2CC(=O)N(C)[C@@H](CC(C)C)C(=O)N3CCN(CC4CC4)C[C@@H]3C(=O)N[C@H](Cc3ccccc3)COc3ccc4nc(C)oc4c3C(=O)N2)c1 [Example 425, (8S,12S,18aR,21R)-21-benzyl-17-(cyclopropylmethyl)-12-isobutyl-N-(3-methoxyphenethyl)-4,11-dimethyl-6,10,13,19-tetraoxo-6,7,8,9,10,11,12,13,16,17,18,18a,19,20,21,22-hexadecahydro-15H-oxazolo[4′,5′:5,6]benzo[1,2-p]pyrazino[2,1-f][1]oxa[4,7,10,14]tetraazacycloheptadecine-8-carboxamide] | – | – | EC50 [4]: 348 nM; Emax [5]: 364%
11 | – | – | COc1cccc(CCNC(=O)[C@@H]2CC(=O)N(C)[C@@H](CC(C)C)C(=O)N(C)CC(=O)N[C@H](Cc3ccccc3)COc3cc(C)ccc3C(=O)N2)c1 [Example 233, (3R,9S,13S)-3-benzyl-9-isobutyl-N-(3-methoxyphenethyl)-7,10,18-trimethyl-5,8,11,15-tetraoxo-2,3,4,5,6,7,8,9,10,11,12,13,14,15-tetradecahydrobenzo[p][1]oxa[4,7,10,14]tetraazacycloheptadecine-13-carboxamide] | 92 | 610 | –
12 | – | – | CC(C)C[C@H]1C(=O)N2CCCC[C@@H]2C(=O)N[C@H](Cc2ccccc2)COc2ccc3ncn(C)c3c2C(=O)N[C@H](C(=O)NCCc2ccc3c(c2)OCO3)CC(=O)N1C [Example 329, (8S,12S,18aR,21R)-N-(2-(benzo[d][1,3]dioxol-5-yl)ethyl)-21-benzyl-12-isobutyl-5,11-dimethyl-6,10,13,19-tetraoxo-6,7,8,9,10,11,12,13,16,17,18,18a,19,20,21,22-hexadecahydro-5H,15H-imidazo[4′,5′:5,6]benzo[1,2-p]pyrido[2,1-f][1]oxa[4,7,10,14]tetraazacycloheptadecine-8-carboxamide] | 198 | 796 | –
13 | – | – | COc1ccc(CCNC(=O)[C@@H]2CC(=O)N(C)[C@@H](CC(C)C)C(=O)N(C)CC(=O)N[C@H](Cc3ccccc3)COc3cc(OC)c(OC)cc3C(=O)N2)cc1 [Example 193, (3R,9S,13S)-3-benzyl-9-isobutyl-17,18-dimethoxy-N-(4-methoxyphenethyl)-7,10-dimethyl-5,8,11,15-tetraoxo-2,3,4,5,6,7,8,9,10,11,12,13,14,15-tetradecahydrobenzo[p][1]oxa[4,7,10,14]tetraazacycloheptadecine-13-carboxamide] | 118 | 521 | –
14 | – | – | CC(C)C[C@H]1C(=O)N2CCOC[C@@H]2C(=O)N[C@H](Cc2ccccc2)COc2ccc3ccccc3c2C(=O)N[C@H](C(=O)NCCc2cc3c(cc2Cl)OCCO3)CC(=O)N1C [Example 37, (4aR,7R,18S,22S)-7-benzyl-N-(2-(7-chloro-2,3-dihydrobenzo[b][1,4]dioxin-6-yl)ethyl)-22-isobutyl-21-methyl-5,16,20,23-tetraoxo-1,2,4,4a,5,6,7,8,16,17,18,19,20,21,22,23-hexadecahydronaphtho[1,2-p][1,4]oxazino[3,4-f][1]oxa[4,7,10,14]tetraazacycloheptadecine-18-carboxamide] | 205 | 122 | –

Row | SMILES | EC50 [1] [nM] | Emax [2] [%] | Emax [3] [%] | EC50 [6] [nM] | also measured
15 | COc1cc(C[C@@H]2C(=O)N[C@H](Cc3ccccc3)COc3ccnc(OC)c3C(=O)N[C@H](C(=O)NCCc3noc(C4CC4)n3)CC(=O)N(C)[C@@H](CC(C)C)C(=O)N2C)on1 [Example 861, (3R,6R,9S,13S)-3-benzyl-N-(2-(5-cyclopropyl-1,2,4-oxadiazol-3-yl)ethyl)-9-isobutyl-16-methoxy-6-((3-methoxyisoxazol-5-yl)methyl)-7,10-dimethyl-5,8,11,15-tetraoxo-2,3,4,5,6,7,8,9,10,11,12,13,14,15-tetradecahydropyrido[3,4-p][1]oxa[4,7,10,14]tetraazacycloheptadecine-13-carboxamide] | 722 | 384 | – | – | –
